How the values were obtained:
USP30 = molecular target: T1, USP30 (Homo sapiens, UniProt Q70CQ3); assay: In-cell target engagement using HA-Ub-VME competition, immunoblot; type: cell-based; settings: HEK293T cells, 1 hour, in-lysate HA-Ub-VME competition, western blot
T1 construct: We next determined cellular engagement of endogenous USP30 with IMP-2587 or IMP-2586; endogenous in cells; host or cells: HEK293T
T1 sequence (Q70CQ3 1-517): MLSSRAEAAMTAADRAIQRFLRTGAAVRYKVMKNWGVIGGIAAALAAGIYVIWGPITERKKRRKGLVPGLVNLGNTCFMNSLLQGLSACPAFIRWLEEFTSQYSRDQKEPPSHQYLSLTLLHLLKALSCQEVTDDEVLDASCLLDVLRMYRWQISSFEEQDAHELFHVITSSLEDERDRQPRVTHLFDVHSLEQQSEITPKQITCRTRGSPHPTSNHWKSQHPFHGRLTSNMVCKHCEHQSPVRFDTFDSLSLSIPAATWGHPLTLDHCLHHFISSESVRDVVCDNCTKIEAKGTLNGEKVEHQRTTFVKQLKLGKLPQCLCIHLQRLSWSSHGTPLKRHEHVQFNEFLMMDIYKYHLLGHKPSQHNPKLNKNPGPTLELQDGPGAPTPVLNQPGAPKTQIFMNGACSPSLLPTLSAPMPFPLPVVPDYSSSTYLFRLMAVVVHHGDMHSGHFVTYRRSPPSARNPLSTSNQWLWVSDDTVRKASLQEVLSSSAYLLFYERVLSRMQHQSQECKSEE
Method: (§1) We next determined cellular engagement of endogenous USP30 with IMP-2587 or IMP-2586. […] In-cell concentration-dependent competition by IMP-2587 and IMP-2586 for USP30 were confirmed below 100 nM probe (Fig. 2b and c), whilst engagement of an exemplar unrelated DUB, UCHL1, occurred only at a much higher concentration (30 000 nM). We hypothesise that incomplete modification of USP30 by HA-Ub-VME is likely due to limited retention of USP30 activity in cell lysates, which have likely had the USP30 transmembrane domain compromised, highlighting the potential utility of a small molecule USP30 ABP applicable directly in intact cells. Direct USP30 target engagement by IMP-2587 and IMP-2586 was confirmed in HEK293T cells following 1 h probe treatment followed by cell lysis and CuAAC bio-orthogonal ligation to capture reagent azido-TAMRA-biotin (AzTB) for IMP-2587 or alkyne-TAMRA-biotin for IMP-2586 (Fig. 3a).[27] […] This unspecific background labelling is presumably due to the previously reported higher off-target CuAAC reactivity of an alkyne-bearing capture reagent, applied here due to incorporation of an azide tag in IMP-2586.[28] Moreover, the labelling of USP30 was further confirmed by biotin pulldown and immunoblotting.
(§2) 2) USP30 in-cell engagement analysis […]
(§3) Protein concentration was determined by DC Protein assay (Bio-RAD). […]

UCHL1 = molecular target: T2, UCHL1 (Homo sapiens, UniProt P09936); assay: as above; type: cell-based; parameters: endogenous in cells; host or cells: HEK293T; settings: HEK293T cells, 1 hour, in-lysate HA-Ub-VME competition, western blot
T2 sequence (P09936 1-223): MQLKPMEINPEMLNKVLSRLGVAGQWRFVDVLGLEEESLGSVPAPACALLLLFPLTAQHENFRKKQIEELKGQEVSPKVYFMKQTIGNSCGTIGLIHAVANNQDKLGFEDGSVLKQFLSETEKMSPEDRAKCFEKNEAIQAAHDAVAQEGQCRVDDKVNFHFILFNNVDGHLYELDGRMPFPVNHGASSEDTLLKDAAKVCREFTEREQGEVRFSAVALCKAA
Method: as §1, §2, §3

Compound	probe concentration at which in-cell competition for USP30 was confirmed (USP30)	concentration at which UCHL1 engagement occurred (UCHL1)
N#CN1CC[C@@H](NC(=O)c2cc(-c3ccccc3Oc3ccc(N=[N+]=[N-])cc3)n[nH]2)C1 [IMP-2586]	below 100 nM	30 000 nM
C#Cc1cccc(-c2cc(NC(=O)CC3CCN(C#N)C3)on2)c1 (stereo not shown) [IMP-2587]	below 100 nM	30 000 nM

Reference: paper PMC11078216, “Discovery of potent and selective activity-based probes (ABPs) for the deubiquitinating enzyme USP30” (RSC Chemical Biology, 2024)
